Data taken from patent US11254706B2, “Peptide and its derivatives capable of inhibiting replication of hepatitis V virus in human adipose-derived stem cells and hepatocytes” (Inno Bio-Drug Development Limited, priority 2015, dated 2022).
Ends that are not written are not given here.

Key:
[1] = test system: serum-borne HCV (genotype 1b); test: Replication of serum-borne HCV in hADSC (qRT-PCR of 5′-UTR); assay type: cell-based; settings: p5 hADSC, peptide 1, 10 and 100 μg/ml (control peptide 100 μg/ml) added 1 h before HCV(+) serum genotype 1b, day 21 post-infection; for viral (5′-UTR) copy numbers in the supernatant: FIG. 1A; for viral (5′-UTR) copy numbers in cell lysates: FIG. 1B
From the text: FIG. 1. […] Data are expressed as mean±SD from 3 experiments. […] Data are expressed as mean±SD from 3 experiments.
We next examined the effect of a peptide composed of 14 amino acids DEAQETAVSSHEQD (SEQ ID NO: 1) (designated as DEA), and its derivatives QETAVSSHEQD (SEQ ID NO: 3) (designated as QET) and DEAQETAVSSHEQ (SEQ ID NO: 2) (designated DEA-Q) as prepared in Example 1, in the replication of serum-borne HCV in hADSC and in human primary hepatocytes. […] (SEQ ID NO: 4)^10. […] In contrast, pretreatment with control peptide had no effects.

HCVser (genotype 1b) = settings: for HCV copy numbers: at some concentrations (such as 10 and 100 μg/ml); for HCVser replication in human hepatocytes (cellular 5′-UTR RNA): pretreatment 1 h before HCVser-1b, five days post-infection, FIG. 1C
Experimental: FIG. 1. […] (A and B) Concentrations of 1, 10 and 100 μg/ml of DEA, DEA-Q and QET peptides were added into the culture of p5 hADSC for 1 h before exposure to HCV(+) serum (genotype 1b). HLA-A11 restricted, Epstein-Barr virus-specific peptide epitope […] was used as a control (irrelevant) peptide. On day 21 post-infection, the 5′-UTR copy numbers in the supernatant (A) and cell lysates (B) were quantified by qRT-PCR. Data are expressed as mean±SD from 3 experiments. (C) Concentrations of 1, 10 and 100 μg/ml of DEA, DEA-Q and QET peptides were added into the culture of primary human hepatocytes 1 h before exposure to HCVser (genotype 1b). Five days post-infection, the cellular RNAs were extracted for RT-PCR of 5′-UTR. Data are expressed as mean±SD from 3 experiments.
Human hepatocytes were isolated from the non-tumoural part away from the lesion, as described^11. Hepatocytes were left for 3 days to allow attachment onto plastic wells, and subsequently exposed to the HCVser-1b with or without pretreatment with control peptide, DEA, DEA-Q or QET peptide. Five days post-infection, the cellular RNAs were extracted for RT-PCR of 5′-UTR.

DEAQETAVSSHEQ-OH [DEA-Q, DEAQETAVSSHEQ]
viral (5′-UTR) copy numbers in the supernatant [1]: significantly reduced | viral (5′-UTR) copy numbers in cell lysates [1]: significantly reduced | HCV copy numbers (HCVser (genotype 1b)): under detection limit | HCVser replication in human hepatocytes (cellular 5′-UTR RNA) (HCVser (genotype 1b)): significantly inhibited

QETAVSSHEQD-OH [QET, QETAVSSHEQD]
viral (5′-UTR) copy numbers in the supernatant [1]: significantly reduced | viral (5′-UTR) copy numbers in cell lysates [1]: significantly reduced | HCV copy numbers (HCVser (genotype 1b)): under detection limit | HCVser replication in human hepatocytes (cellular 5′-UTR RNA) (HCVser (genotype 1b)): significantly inhibited

DEAQETAVSSHEQD-OH [DEA, DEAQETAVSSHEQD]
viral (5′-UTR) copy numbers in the supernatant [1]: significantly reduced | viral (5′-UTR) copy numbers in cell lysates [1]: significantly reduced | HCV copy numbers (HCVser (genotype 1b)): under detection limit | HCVser replication in human hepatocytes (cellular 5′-UTR RNA) (HCVser (genotype 1b)): significantly inhibited

CSSCSSCPLSK (HLA-A11 restricted, Epstein-Barr virus-specific peptide epitope) [control peptide, reference compound]
viral (5′-UTR) copy numbers in the supernatant [1]: no effects | viral (5′-UTR) copy numbers in cell lysates [1]: no effects
